Data taken from ChEMBL document CHEMBL5579830, “Design and synthesis of 6-C-alkyl-DMDP type nanomolar inhibitors of β-galactosidase and β-glucosidase based on broussonetine S and related derivatives” (Eur J Med Chem, 2024).
pEC50, pIC50: −log10 of the molar value.

How the values were obtained:
[1] = Inhibition of Aspergillus niger amyloglucosidase using p-nitrophenyl glycoside as substrate assessed as release of p-nitrophenol by spectrometric analysis
[2] = Inhibition of almond beta-glucosidase using p-nitrophenyl glycoside as substrate assessed as release of p-nitrophenol by spectrometric analysis; design: species or system Prunus dulcis
[3] = Inhibition of bovine liver beta-galactosidase using p-nitrophenyl glycoside as substrate assessed as release of p-nitrophenol by spectrometric analysis; design: species or system Bos taurus
[4] = target: T1, Alpha-mannosidase (Canavalia ensiformis) (UniProt C0HJB3); experiment: Inhibition of jack bean alpha-mannosidase using p-nitrophenyl glycoside as substrate assessed as release of p-nitrophenol at 1000 uM by spectrometric analysis relative to control
T1 sequence (whole entry): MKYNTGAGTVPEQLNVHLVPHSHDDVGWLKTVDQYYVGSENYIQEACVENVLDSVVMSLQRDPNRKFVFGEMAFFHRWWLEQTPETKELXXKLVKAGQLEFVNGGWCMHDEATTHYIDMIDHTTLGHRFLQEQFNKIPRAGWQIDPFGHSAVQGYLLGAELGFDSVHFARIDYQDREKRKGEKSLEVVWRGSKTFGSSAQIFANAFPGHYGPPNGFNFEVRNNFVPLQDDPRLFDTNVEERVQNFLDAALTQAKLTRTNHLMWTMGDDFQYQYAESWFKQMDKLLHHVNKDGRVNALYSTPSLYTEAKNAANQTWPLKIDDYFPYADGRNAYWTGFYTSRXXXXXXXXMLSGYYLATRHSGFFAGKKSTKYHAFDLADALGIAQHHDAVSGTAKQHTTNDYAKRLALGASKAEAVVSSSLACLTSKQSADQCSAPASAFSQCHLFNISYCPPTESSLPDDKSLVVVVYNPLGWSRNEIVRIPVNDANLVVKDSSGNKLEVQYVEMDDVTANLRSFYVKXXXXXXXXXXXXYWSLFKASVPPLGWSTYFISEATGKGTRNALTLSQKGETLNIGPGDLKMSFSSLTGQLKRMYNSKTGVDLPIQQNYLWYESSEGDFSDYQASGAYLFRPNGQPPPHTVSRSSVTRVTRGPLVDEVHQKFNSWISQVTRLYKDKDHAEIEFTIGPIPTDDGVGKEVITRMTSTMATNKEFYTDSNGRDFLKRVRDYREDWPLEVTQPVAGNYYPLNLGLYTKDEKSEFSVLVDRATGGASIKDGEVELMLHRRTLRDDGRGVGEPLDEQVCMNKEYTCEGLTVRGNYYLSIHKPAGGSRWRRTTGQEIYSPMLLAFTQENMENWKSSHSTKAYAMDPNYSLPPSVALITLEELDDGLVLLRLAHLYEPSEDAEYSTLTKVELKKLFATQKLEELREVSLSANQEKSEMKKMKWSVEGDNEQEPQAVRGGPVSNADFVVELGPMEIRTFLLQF

[5] = target: T2, Lysosomal acid glucosylceramidase (Homo sapiens, UniProt P04062); experiment: Inhibition of human lysosome beta-glucosidase using p-nitrophenyl glycoside as substrate assessed as release of p-nitrophenol by spectrometric analysis
T2 sequence (P04062 whole entry): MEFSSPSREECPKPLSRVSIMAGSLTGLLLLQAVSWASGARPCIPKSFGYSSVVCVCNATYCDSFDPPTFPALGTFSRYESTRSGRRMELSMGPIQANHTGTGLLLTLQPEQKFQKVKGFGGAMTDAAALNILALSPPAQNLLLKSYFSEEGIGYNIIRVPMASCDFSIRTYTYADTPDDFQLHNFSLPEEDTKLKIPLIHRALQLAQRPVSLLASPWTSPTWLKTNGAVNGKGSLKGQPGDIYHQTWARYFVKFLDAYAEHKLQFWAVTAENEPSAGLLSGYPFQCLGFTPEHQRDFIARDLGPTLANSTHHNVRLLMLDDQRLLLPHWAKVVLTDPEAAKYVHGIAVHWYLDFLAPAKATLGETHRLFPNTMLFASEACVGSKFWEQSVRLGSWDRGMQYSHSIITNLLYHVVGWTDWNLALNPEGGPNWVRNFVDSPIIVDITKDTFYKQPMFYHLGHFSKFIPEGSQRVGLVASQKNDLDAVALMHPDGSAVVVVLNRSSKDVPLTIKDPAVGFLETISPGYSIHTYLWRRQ

[6] = target: Alpha-galactosidase (Coffea arabica) (UniProt Q42656); experiment: Inhibition of coffee bean alpha-galactosidase using p-nitrophenyl glycoside as substrate assessed as release of p-nitrophenol at 1000 uM by spectrometric analysis relative to control
Chain of Alpha-galactosidase (Coffea arabica) (Q42656 16-378 limits assumed): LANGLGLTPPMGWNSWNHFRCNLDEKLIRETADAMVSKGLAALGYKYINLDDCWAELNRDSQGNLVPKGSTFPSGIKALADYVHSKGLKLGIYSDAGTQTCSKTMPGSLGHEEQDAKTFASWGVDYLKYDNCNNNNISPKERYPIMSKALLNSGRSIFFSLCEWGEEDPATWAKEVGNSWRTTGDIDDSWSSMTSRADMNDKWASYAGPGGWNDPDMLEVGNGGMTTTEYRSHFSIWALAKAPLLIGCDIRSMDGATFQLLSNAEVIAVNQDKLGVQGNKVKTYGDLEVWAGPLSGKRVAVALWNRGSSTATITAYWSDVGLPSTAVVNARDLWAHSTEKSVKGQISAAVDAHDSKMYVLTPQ

Alpha-glucosidase = Alpha-glucosidase (Saccharomyces cerevisiae S288c, UniProt P53341+P38158+P07265); experiment: Inhibition of yeast alpha-glucosidase using p-nitrophenyl glycoside as substrate assessed as release of p-nitrophenol by spectrometric analysis; format: protein assay
[7] = target: T3, Tissue alpha-L-fucosidase (Bos taurus) (UniProt Q2KIM0); experiment: Inhibition of bovine kidney alpha-L-fucosidase using p-nitrophenyl glycoside as substrate assessed as release of p-nitrophenol at 1000 uM by spectrometric analysis relative to control
T3 sequence (whole entry): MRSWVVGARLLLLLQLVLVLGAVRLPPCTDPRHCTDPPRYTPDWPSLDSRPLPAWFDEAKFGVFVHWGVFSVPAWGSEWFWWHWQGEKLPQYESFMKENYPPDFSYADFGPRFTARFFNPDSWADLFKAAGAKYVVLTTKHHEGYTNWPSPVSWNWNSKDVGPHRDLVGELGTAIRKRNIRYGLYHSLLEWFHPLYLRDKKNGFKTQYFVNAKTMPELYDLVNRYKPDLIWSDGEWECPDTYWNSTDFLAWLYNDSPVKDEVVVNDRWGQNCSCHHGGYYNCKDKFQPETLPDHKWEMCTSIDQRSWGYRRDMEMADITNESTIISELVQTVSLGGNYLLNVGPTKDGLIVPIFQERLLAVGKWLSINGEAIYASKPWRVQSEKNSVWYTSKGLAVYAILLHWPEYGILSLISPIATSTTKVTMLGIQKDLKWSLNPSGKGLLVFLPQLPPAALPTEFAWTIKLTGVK

[8] = Inhibition of Escherichia coli beta-glucuronidase using p-nitrophenyl glycoside as substrate assessed as release of p-nitrophenol by spectrometric analysis
MKN-45 = experiment: cells; conditions: Homo sapiens, MKN-45, 48 h
[9] = Inhibition of rice alpha-glucosidase using p-nitrophenyl glycoside as substrate assessed as release of p-nitrophenol by spectrometric analysis; design: species or system Oryza sativa
[10] = Inhibition of snail beta-mannosidase using p-nitrophenyl glycoside as substrate assessed as release of p-nitrophenol by spectrometric analysis; design: species or system Helix pomatia
[11] = target: Lysosomal alpha-glucosidase (Homo sapiens, UniProt P10253); experiment: Inhibition of human lysosome alpha-glucosidase using p-nitrophenyl glycoside as substrate assessed as release of p-nitrophenol by spectrometric analysis
[12] = target: T4, Glucosylceramidase (Bos taurus) (UniProt Q2KHZ8); experiment: Inhibition of bovine liver beta-glucosidase using p-nitrophenyl glycoside as substrate assessed as release of p-nitrophenol at 1000 uM by spectrometric analysis relative to control
T4 sequence (whole entry): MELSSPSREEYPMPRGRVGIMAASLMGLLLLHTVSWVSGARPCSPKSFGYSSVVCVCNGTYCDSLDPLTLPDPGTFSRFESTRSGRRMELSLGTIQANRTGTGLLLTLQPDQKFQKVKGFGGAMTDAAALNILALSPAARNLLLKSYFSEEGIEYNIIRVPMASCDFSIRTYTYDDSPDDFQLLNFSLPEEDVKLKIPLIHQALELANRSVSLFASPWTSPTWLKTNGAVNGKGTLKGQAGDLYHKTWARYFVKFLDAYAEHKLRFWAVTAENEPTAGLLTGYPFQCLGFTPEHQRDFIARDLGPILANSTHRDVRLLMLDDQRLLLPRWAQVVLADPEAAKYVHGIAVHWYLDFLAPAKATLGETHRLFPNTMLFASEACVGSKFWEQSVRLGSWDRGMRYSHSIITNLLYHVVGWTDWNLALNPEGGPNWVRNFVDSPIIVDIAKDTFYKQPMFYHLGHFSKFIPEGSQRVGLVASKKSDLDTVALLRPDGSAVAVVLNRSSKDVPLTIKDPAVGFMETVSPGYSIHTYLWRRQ

| SMILES | pIC50 [2] | pIC50 [3] | inhibition [4] [%] | inhibition [6] [%] | inhibition [7] [%] | pIC50 [8] | further results |
| --- | --- | --- | --- | --- | --- | --- | --- |
| CCCCCC[C@@H](O)[C@H]1N[C@H](CO)[C@@H](O)[C@@H]1O | 6.70 | 7.30 | 2.1 | 0 | – | – | pIC50 [1]: 4.04; pIC50 [5]: 4.14 |
| CCCCCCCCC[C@@H](O)[C@H]1N[C@H](CO)[C@@H](O)[C@@H]1O.Cl | – | – | – | – | – | – | IC50 (Alpha-glucosidase): 21 µM |
| OCCC[C@H](O)CCCCCCCC[C@H](O)[C@H]1N[C@H](CO)[C@@H](O)[C@@H]1O | 5.55 | 7.21 | 0 | 4.7 | 6 | 5.54 | – |
| CCCCCCCC[C@H](O)[C@H]1N[C@H](CO)[C@@H](O)[C@@H]1O.Cl | – | – | – | – | – | – | IC50 (Alpha-glucosidase): 101 µM |
| Cl.OCCC[C@@H](O)CCCCCCCC[C@@H](O)[C@@H]1N[C@@H](CO)[C@H](O)[C@H]1O | – | 5.64 | 0 | 4.1 | 8.6 | 4.34 | IC50 (Alpha-glucosidase): 49 µM |
| CC(=O)O[C@H]1C(=O)[C@@]2(C)[C@H]([C@H](OC(=O)c3ccccc3)[C@]3(O)C[C@H](OC(=O)[C@H](O)[C@@H](NC(=O)c4ccccc4)c4ccccc4)C(C)=C1C3(C)C)[C@]1(OC(C)=O)CO[C@@H]1C[C@@H]2O [PACLITAXEL] | – | – | – | – | – | – | pEC50 (MKN-45): 8.52 |
| CCCCCCC[C@@H](O)[C@@H]1N[C@@H](CO)[C@H](O)[C@H]1O | – | 4.54 | 0 | 0 | – | – | – |
| CCCCCCC[C@H](O)[C@H]1N[C@H](CO)[C@@H](O)[C@@H]1O | 6.27 | 6.41 | 0.2 | 0 | – | – | – |
| OCCC[C@H](O)CCCCCCCC[C@@H](O)[C@@H]1N[C@@H](CO)[C@H](O)[C@H]1O | – | 5.41 | 0 | 4.11 | 1.1 | 4.46 | – |
| CCCCCCCC[C@@H](O)[C@H]1N[C@H](CO)[C@@H](O)[C@@H]1O.Cl | – | – | – | – | – | – | IC50 (Alpha-glucosidase): 28 µM |
| OCCC[C@@H](O)CCCCCCCC[C@@H](O)[C@H]1N[C@H](CO)[C@@H](O)[C@@H]1O | 6.28 | 8.30 | 0 | 4.4 | 6.5 | 5.48 | pIC50 [1]: 4.21; pIC50 [10]: 4.21 |
| CCCCCCC[C@@H](O)[C@H]1N[C@H](CO)[C@@H](O)[C@@H]1O | 6.92 | 7.82 | 1.7 | 0 | – | – | pIC50 [1]: 4.04; pIC50 [5]: 4.85; pIC50 [10]: 4.02 |
| OCCC[C@H](O)CCCCCCCC[C@@H](O)[C@H]1N[C@H](CO)[C@@H](O)[C@@H]1O | 6.16 | 8.15 | 0 | 4.5 | 0.86 | 5.57 | pIC50 [1]: 4.14; pIC50 [10]: 4.15 |
| OCCC[C@H](O)CCCCCCCCC[C@@H]1N[C@@H](CO)[C@H](O)[C@H]1O | – | 4.30 | 2.2 | 0.3 | 0 | – | inhibition [12]: 46.5%; pIC50 [9]: 5.92 |
| OCCC[C@H](O)CCCCCCCC[C@H](O)[C@@H]1N[C@@H](CO)[C@H](O)[C@H]1O | – | 5.29 | 0 | 4.9 | 5.9 | 4.54 | pIC50 [9]: 5.14 |
| CCCCCCCCC[C@H](O)[C@H]1N[C@H](CO)[C@@H](O)[C@@H]1O.Cl | – | – | – | – | – | – | IC50 (Alpha-glucosidase): 53 µM |
| OCCC[C@@H](O)CCCCCCCC[C@H](O)C1N[C@H](CO)[C@@H](O)[C@@H]1O (single isomer, unassigned) | 5.74 | 7.34 | 0 | 4.6 | 0.43 | 5.60 | – |

More lines, main results first:

| pIC50 [2] | pIC50 [3] | inhibition [4] [%] | inhibition [6] [%] | inhibition [7] [%] | pIC50 [8] | SMILES | further results |
| --- | --- | --- | --- | --- | --- | --- | --- |
| 6.19 | 6.44 | 2.1 | 0 | – | – | CCCCCC[C@H](O)[C@H]1N[C@H](CO)[C@@H](O)[C@@H]1O | – |
| – | 5.64 | 2.5 | 0 | 0 | 4.07 | OCCC[C@@H](O)CCCCCCCCC[C@H]1N[C@H](CO)[C@@H](O)[C@@H]1O | – |
| 4.04 | 6.13 | 2.2 | 4.8 | 4.3 | 4.25 | OCCC[C@@H](O)CCCCCCCC[C@H](O)[C@@H]1N[C@@H](CO)[C@H](O)[C@H]1O | pIC50 [9]: 4.96 |
| – | 4.39 | 2.6 | 0 | – | – | CCCCCCC[C@H](O)[C@@H]1N[C@@H](CO)[C@H](O)[C@H]1O | pIC50 [11]: 5.68; pIC50 [9]: 5.22 |
